Experimental findings from patent US20110213000A1, “N-(2-THIAZOLYL)-AMIDE DERIVATIVES FOR THE TREATMENT OF OBESITY, DIABETES AND CARDIOVASCULAR DISEASES” (ZELTIA, S.A., priority 2007, published 2011) are described below.

The assay deals with adiponectin promoter. As to the kind of experiment: Luciferase reporter screening of promoter transcriptional activity in stable C2C12 cell lines. The assay is classed as cell-based, mouse. As to conditions: for activation ratio: C2C12 stable line, luciferase, vs vehicle; for concentration at which the greatest transactivation was achieved: dose-response curve of the commercial activator on the target promoter. The text has this:
The following protocol has been followed for the purpose of analyzing the potential therapeutic activity against obesity, type 2 diabetes mellitus and atherosclerosis (ODA metabolic diseases) of the compounds 1-5: • generating cell lines which have stably integrated human promoters of key genes in the development of ODA diseases; • amplifying the human promoter sequence of the target genes starting from commercial human genomic DNA; • cloning the promoter into a suitable vector which allows knowing the transcriptional activity of the promoter sequence, using the luciferase gene as a reporter gene; • generating stable cell lines for each of the promoters cloned into the reporter vectors; • carrying out the screening test with the compounds of the invention on the stable cell lines; • suitably validating the effect obtained with a certain compound which can modify the transcriptional activity of the promoter.
The selected cell line is C2C12, corresponding to myoblasts from mouse muscle tissue.
The luciferase activity is measured according to the following protocol: • a) 50000 and […] cells/well (and in duplicate) are seeded in a P24 plate. • b) After approximately 24 hours, the medium is removed from the cells and each well is washed with PBS 1× (because DMEM interferes in the measurement of the activity of the reporter gene) • c) 100 μl of luciferase developing reagent are added in each cell (Bright-Glo™ Luciferase Assay system—Promega). This reagent carries the reporter gene substrate and luminescence is generated as the product of the enzymatic reaction. The cells which have acquired the reporter gene, and therefore the target promoter, will be luminescent upon being in the presence of said substrate. To record the measurement of luciferase activity, the plate is shaken for 30 seconds right after adding the developing reagent and after 2 minutes, the volume is collected and transferred to a 96-well plate (P96), which can be read in an illuminometer. • d) The suitable luminescence program is selected, such that the reading lasts 5 seconds per well, and the arbitrary luminescence units are recorded for each obtained clone or, in other words, for each stable cell line.
Carrying out the screening test: The clones used in the screening are: C2C12 Adipo (adiponectin promoter), C2C12 UCP3 (UCP3 promoter), C2C12 AdR1 (adiponectin receptor 1 promoter) and C2C12 Nmu (neuromedin promoter).
Before any screening experiment, the suitable number of cells for carrying out such experiments must first be provided. To that end, 2 T75 are usually seeded (with approximately 1×10^6 cells in each bottle), such that after four days, the cells have reached confluence and are ready for the screening protocol detailed below to be carried out. • 1. Day 1: 30000 cells per well are seeded in white P96 plates; these plates allow amplifying the luminescence signal and improving the reading. The cells are grown in 100 μl of hygromycin-free medium. • 2. Day 2: 24 hours after the seeding, the cells are stimulated with compounds 1-5. […]
[drawing 16] • ? In the indicated positions, the baseline transcriptional activity of the promoters to be studied is recorded in the presence of the medium in which compounds 1-5 (vehicle) are dissolved. • ? In the indicated positions, the transcriptional activity of the promoters to be studied is recorded in the presence of a known commercial activator of the target promoter. […]

Where [1] appears, read: 0.5 μM, 48 hours after stimulation.
The mark [2] stands for this setting: 1 μM, 48 hours after stimulation.
Setting [3] is: 10 μM, 48 hours after stimulation.
[4] abbreviates: 25 μM, 48 hours after stimulation.
Where [5] appears, read: 5 μM, 48 hours after stimulation.
Setting [6] is: 20 μM, 48 hours after stimulation.

Take `O=C(Nc1nccs1)c1n[nH]c2ccccc12` [Compound 1, thiazol-2-ylamide compound of 1H-indazole-3-carboxylic acid]: the activation ratio was 1.28 (0.1 μM, 48 hours after stimulation); 3.66 under setting [1]; 4.59 under setting [2]; 5.52 under setting [3]; 3.58 under setting [4]; 2.29 (50 μM, dose-response curve). In addition, the activation ratio amounted to 0.71 (100 μM, dose-response curve) and 0.12 (400 μM, dose-response curve).
For `O=C(Nc1nccs1)c1ccccn1` [Compound 3, pyridin-2-carboxylic acid thiazol-2-yl-amide], the activation ratio is 1.40 under setting [1]; 1.71 under setting [2]; 3.23 under setting [5]; 3.82 under setting [3]; 3.73 under setting [4]; 3.20 (50 μM, dose-response curve). In addition, the activation ratio is 1.61 (100 μM, dose-response curve) and 0.75 (200 μM, dose-response curve).
Turning to `O=c1c(-c2ccc(O)cc2)coc2cc(O)ccc12` [Daidzein], the “concentration at which the greatest transactivation was achieved” value (“concentration” below) was found to be 20 µM. Further, the activation ratio under setting [2] is recorded as 1.68. In addition, under setting [5], the activation ratio was 3.03. In addition, the activation ratio under setting [3] is reported as 3.76. In addition, under setting [6], the activation ratio turned out to be 4.04. Also, the activation ratio (50 μM, dose-response curve) is 4.05. The activation ratio (100 μM, dose-response curve) came to 3.71.
Turning to `O=c1c(-c2ccc(O)cc2)coc2cc(O)cc(O)c12` [Genistein], the “concentration” value came to 20 µM. Under setting [2], the activation ratio was found to be 1.47. Further, the activation ratio under setting [5] is 2.25. Also, the activation ratio under setting [3] was determined as 3.59. Besides, under setting [6], the activation ratio was determined as 3.05. Moreover, where the note is “50 μM, dose-response curve”, the activation ratio worked out at 1.97. In addition, for the setting “100 μM, dose-response curve”, the activation ratio is given as 1.75. For the same molecule, the activation ratio (200 μM, dose-response curve) came out at 1.59.
For `CN(CCOc1ccc(CC2SC(=O)NC2=O)cc1)c1ccccn1` (centres unmarked) [Rosiglitazone], the “concentration” value worked out at 20 µM.
